Assay results published in patent US4640916A, “1,4-benzothiazine derivatives, compositions containing them and method of use” (priority 1984, dated 1987).
Counter-ions that a name gives are not always drawn. Like-named read-outs stand apart in the source and are kept apart here.

Legend:
[1] = system: contraction of the aorta strip caused by KCl; assay: Vasodilating action: inhibition of contraction of rabbit aorta strip caused by KCl; format: cell-based; settings: Oryctolagus cuniculus, compound 10^-5 M, KCl 60 mM, 15 min pretreatment, read-out: Inhibitory percent against contraction, KCl
Description: (§1) A spiral strip of aorta of a rabbit (2-3 mm width, about 3 cm length) was allowed to equilibrate by hanging under 2 g force in a Krebs-Henseleit solution. The solution was saturated with a mixture gas of 97% O2 --3% CO2 which was warmed to 37° C. Inhibitory actions of compounds (10^-5 M) of this invention against contraction of the aorta strip caused by KCl (60 mM), norepinephrine (NE) (10^-6 M) or serotonin (5--HT) (10^-6 M), by treating the strip with a compound of this invention 15 minutes before the test, are shown in Table 1 as inhibitory percent.

[2] = system: contraction of the aorta strip caused by norepinephrine (NE); assay: Vasodilating action: inhibition of contraction of rabbit aorta strip caused by norepinephrine (NE); format: cell-based; settings: Oryctolagus cuniculus, compound 10^-5 M, NE 10^-6 M, 15 min pretreatment, read-out: Inhibitory percent against contraction, NE
Description: as §1

[3] = system: contraction of the aorta strip caused by serotonin (5--HT); assay: Vasodilating action: inhibition of contraction of rabbit aorta strip caused by serotonin (5-HT); format: cell-based; settings: Oryctolagus cuniculus, compound 10^-5 M, 5-HT 10^-6 M, 15 min pretreatment, read-out: Inhibitory percent against contraction, 5-HT
Description: as §1

[4] = system: spontaneously hypertensive rats; assay: Antihypertensive action in spontaneously hypertensive rats (tail-cuff); format: in vivo; settings: 1 h after administration
Description: Male 12 to 13 weeks old spontaneously hypertensive rats with about 200 mm Hg of blood pressure were used in groups of 3 individuals. Mean arterial blood pressures of these animals were measured by the tail-cuff method, then the animals were orally given 3-60 mg/kg of each test compound of this invention as 2 ml of its suspension in gum arabic. Blood pressure measurements were made again one hour after administration of each test compound.

[5] = system: contraction depending on intracellular Ca^++; assay: Intracellular Ca++ antagonism: inhibition of phenylephrine contraction of aorta strip in Ca++-free EGTA solution; format: cell-based, rabbit; settings: Oryctolagus cuniculus; compound 10^-6 M; phenylephrine 10^-6 M; Ca++ 0 mM, EGTA 5 mM; read-out: Inhibitory percent (contraction depending on intracellular Ca++)
Description: A spiral strip of aorta of a rabbit (2-3 mm width, about 3 cm length) was allowed to equilibrate by hanging under 2 g force in a Krebs-Henseleit solution. The solution was saturated with a mixture gas 97% O2 --3% CO2, which was warmed to 37° C. The strip was moved into another Krebs-Henseleit solution containing Ca^++ OmM and EGTA 5 mM. Five minutes later, phenylephrine (10^-6 M) was added on the solution. The resulting contraction of the strip was made as the index of the contraction depending on intracellular Ca^++.

| Structure (SMILES) | inhibition at 10 µM [1] [%] | inhibition at 10 µM ([2]; 0.25 h) [%] | inhibition at 10 µM [3] [%] | Antihypertensive effect (difference of blood pressure before and after medication) ([4]; 30 mg/Kg oral) | inhibition at 10 µM [2] [%] | Antihypertensive effect (difference of blood pressure before and after medication) ([4]; 60 mg/Kg oral) | inhibition at 1 µM [5] [%] | Antihypertensive effect (difference of blood pressure before and after medication) ([4]; 10 mg/Kg oral) |
| --- | --- | --- | --- | --- | --- | --- | --- | --- |
| CCN1C(=O)C(CCN2CCN(c3ccccc3OC)CC2)Sc2ccccc21 (stereo not shown) [Example 36, 4-ethyl-2-[2-[4-(2-methoxyphenyl)-1-piperazinyl]ethyl]-2H-1,4-benzothiazin-3(4H)-one] | 15 | 100 | 100 | – | – | – | – | – |
| O=C1Nc2cc3c(cc2SC1CCCN1CCN(c2ccc(F)cc2)CC1)OCO3 (stereo not shown) [Example 45, 6-[3-[4-(4-fluorophenyl)-1-piperazinyl]propyl]-6H-1,3-dioxolo[4,5-g][1,4]benzothiazin-7(8H)-one.dihydrochloride] | – | – | – | 30 ΔmmHg | – | – | – | – |
| O=C1Nc2c(ccc3c2CCCC3)SC1CCCN1CCN(c2ccc(F)cc2)CC1 (stereo not shown) [Example 47, 3-[3-[4-(4-fluorophenyl)-1-piperazinyl]propyl]-7,8,9,10-tetrahydro-1H-naphtho[2,1-b][1,4]thiazin-2(3H)-one.hydrochloride] | – | – | – | 35 ΔmmHg | – | – | – | – |
| COc1ccccc1N1CCN(CCCC2Sc3cc(Cl)ccc3NC2=O)CC1 (stereo not shown) [Example 9] | 40 | – | 44 | – | 100 | 35 ΔmmHg | – | – |
| Cc1cc(C)c2c(c1)SC(CCCN1CCN(c3ccc(F)cc3)CC1)C(=O)N2 (stereo not shown) [Example 11] | 70 | – | 67 | 49 ΔmmHg | 95 | – | 97 | – |
| COc1ccccc1N1CCN(CCCC2Sc3cccc(C)c3NC2=O)CC1 (stereo not shown) [Example 16] | 33 | – | 70 | – | 100 | – | – | – |
| Cc1cccc2c1NC(=O)C(CCCN1CCN(c3cccc(C(F)(F)F)c3)CC1)S2 (stereo not shown) [Example 19] | 55 | – | – | – | 100 | – | – | – |
| CN1C(=O)C(CCN2CCN(c3ccccc3)CC2)Sc2ccccc21 (stereo not shown) [Example 31] | 40 | – | 62 | – | 100 | – | – | – |
| Cc1ccccc1N1CCN(CCCC2Sc3cccc(C)c3NC2=O)CC1 (stereo not shown) [Example 17] | 11 | – | – | 26 ΔmmHg | 100 | – | – | – |
| COc1ccccc1N1CCN(CCCC2Sc3cc(C)c(C)cc3NC2=O)CC1 (stereo not shown) [Example 23] | 40 | – | – | 48 ΔmmHg | 100 | – | – | – |
| Cc1cccc2c1NC(=O)C(CCCN1CCN(c3cccc(Cl)c3)CC1)S2 (stereo not shown) [Example 14] | 50 | – | – | 26 ΔmmHg | 100 | – | 100 | – |
| COc1ccc2c(c1)SC(CCCN1CCN(c3ccccc3)CC1)C(=O)N2 (stereo not shown) [Example 5] | 10 | – | 100 | – | 100 | – | – | 49 ΔmmHg |
| Cc1ccc(N2CCN(CCCC3Sc4cccc(C)c4NC3=O)CC2)cc1 (stereo not shown) [Example 7] | 77 | – | – | – | 60 | – | – | – |
| COc1ccccc1N1CCN(CCCC2Sc3cc(C)ccc3NC2=O)CC1 (stereo not shown) [Example 21] | 32 | – | 56 | – | 100 | – | – | – |
| COc1ccc2c(c1)SC(CCN1CCN(c3ccccc3)CC1)C(=O)N2 (stereo not shown) [Example 29] | 15 | – | 73 | – | 96 | – | – | 38 ΔmmHg |
| O=C1Nc2ccccc2SC1CCCN1CCN(c2ccc(F)cc2)CC1 (stereo not shown) [Example 3] | 53 | – | – | – | 100 | – | – | – |
| Cc1cccc2c1NC(=O)C(CCCN1CCN(c3ccc(Cl)cc3)CC1)S2 (stereo not shown) [Example 15] | 40 | – | 20 | – | 100 | – | 30 | – |
| CN1C(=O)C(CCN2CCN(c3ccc(F)cc3)CC2)Sc2ccccc21 (stereo not shown) [Example 30, 2-[2-[4(4-fluorophenyl)-1-piperazinyl]ethyl]-4-methyl-2H-1,4-benzothiazin-3(4H)-one] | 42 | 90 | 100 | 40 ΔmmHg | – | – | – | – |

| Structure (SMILES) | inhibition at 10 µM [1] [%] | inhibition at 10 µM ([2]; 0.25 h) [%] | inhibition at 10 µM [3] [%] | Antihypertensive effect (difference of blood pressure before and after medication) ([4]; 30 mg/Kg oral) | inhibition at 10 µM [2] [%] | Antihypertensive effect (difference of blood pressure before and after medication) ([4]; 60 mg/Kg oral) | inhibition at 1 µM [5] [%] | Antihypertensive effect (difference of blood pressure before and after medication) ([4]; 10 mg/Kg oral) |
| --- | --- | --- | --- | --- | --- | --- | --- | --- |
| Cc1cc2c(cc1C)SC(CCCN1CCN(c3ccc(F)cc3)CC1)C(=O)N2 (stereo not shown) [Example 1, 2-[3-[4-(4-fluorophenyl)-1-piperazinyl]propyl]-6,7-dimethyl-2H-1,4-benzothiazin-3(4H)-one] | 50 | 100 | – | 35 ΔmmHg | – | – | 66 | – |
| O=C1Nc2ccccc2SC1CCN1CCN(c2ccc(F)cc2)CC1 (stereo not shown) [Example 26] | 60 | 60 | – | 26 ΔmmHg | – | – | – | – |
| COc1ccccc1N1CCN(CCCC2Sc3cccc(OC)c3NC2=O)CC1 (stereo not shown) [Example 4] | 18 | – | 12 | – | 100 | – | – | – |
| COc1cccc2c1NC(=O)C(CCCN1CCN(c3ccccc3)CC1)S2 (stereo not shown) [Example 24] | 20 | – | 66 | – | 100 | – | – | – |
| O=C1Nc2ccccc2SC1CCCCN1CCN(c2ccc(F)cc2)CC1 (stereo not shown) [Example 38, 2-[4-[4-(4-fluorophenyl)-1-piperazinyl]butyl]-2H-1,4-benzothiazin-3(4H)-one] | 30 | 100 | – | 32 ΔmmHg | – | – | – | – |
| Cc1ccc2c(c1C)NC(=O)C(CCCN1CCN(c3ccc(F)cc3)CC1)S2 (stereo not shown) [Example 42] | – | – | – | 28 ΔmmHg | – | – | – | – |
| O=C1Nc2ccccc2SC1CCCN1CCN(c2ccccc2)CC1 (stereo not shown) [Example 2] | 70 | – | 97 | 43 ΔmmHg | 100 | – | – | – |
| COc1ccccc1N1CCN(CCC2Sc3ccccc3NC2=O)CC1 (stereo not shown) [Example 28] | 15 | – | 100 | 29 ΔmmHg | 100 | – | – | – |
| CCc1cccc2c1NC(=O)C(CCCN1CCN(c3ccc(F)cc3)CC1)S2 (stereo not shown) [Example 41] | – | – | – | 23 ΔmmHg | – | – | – | – |
| Cc1cccc2c1NC(=O)C(CCCN1CCN(c3ccccc3)CC1)S2 (stereo not shown) [Example 13] | 40 | – | 92 | – | 100 | 36 ΔmmHg | – | – |
| COc1ccc2c(c1)SC(CCCN1CCN(c3ccccc3OC)CC1)C(=O)N2 (stereo not shown) [Example 6] | 26 | – | 91 | – | 100 | – | – | 64 ΔmmHg |
| Cc1cccc2c1NC(=O)C(CCCN1CCN(c3ccc(F)cc3)CC1)S2 (stereo not shown) [Example 12, 2-[3-[4-(4-fluorophenyl)-1-piperazinyl]propyl]-5-methyl-2H-1,4-benzothiazin-3(4H)-one] | 41 | 100 | 96 | – | – | 49 ΔmmHg | 100 | – |
| COc1ccccc1N1CCN(CCCC2Sc3ccc(Cl)cc3NC2=O)CC1 (stereo not shown) [Example 8] | 34 | – | 18 | – | 100 | – | – | – |
| COc1ccccc1N1CCN(CCC2Sc3ccccc3N(C)C2=O)CC1 (stereo not shown) [Example 32] | – | – | 88 | – | 100 | 30 ΔmmHg | – | – |
| O=C1Nc2ccccc2SC1CCN1CCN(c2ccccc2)CC1 (stereo not shown) [Example 27] | 20 | – | 100 | – | 100 | – | – | – |
| COc1ccccc1N1CCN(CCCC2Sc3ccccc3NC2=O)CC1 (stereo not shown) [Example 25, 2-[3-[4-(2-methoxyphenyl)-1-piperazinyl]propyl]-2H-1,4-benzothiazin-3(4H)-one] | 10 | 100 | 84 | 66 ΔmmHg | – | – | – | – |
| Cc1cccc(N2CCN(CCCC3Sc4cccc(C)c4NC3=O)CC2)c1 (stereo not shown) [Example 18] | 50 | – | – | – | 100 | – | – | – |
| O=C1Nc2cc(C(F)(F)F)ccc2SC1CCCN1CCN(c2ccc(F)cc2)CC1 (stereo not shown) [Example 10] | 45 | – | – | 33 ΔmmHg | 100 | – | – | – |
